# Legend:
# [1] = Terminal elimination rate constant in cancer patient with severe renal failure administered as infusion after 0.25 to 1.5 hrs by RP-HPLC analysis; type: ADME, organism-based; design: dosed compound name Irinotecan; settings: human, in vivo, iv; read-out: k_elim (converted)
# [2] = Terminal elimination rate constant in cancer patient normal renal function administered as infusion after 0.25 to 1.5 hrs by RP-HPLC analysis; type: ADME, organism-based; design: dosed compound name Irinotecan; settings: human, in vivo, iv; read-out: k_elim (converted)
k el [1],k el [2],Structure (SMILES)
2.81e-05 s⁻¹,3.33e-05 s⁻¹,CCc1c2c(nc3ccc(OC(=O)N4CCC(N5CCCCC5)CC4)cc13)-c1cc3c(c(=O)n1C2)COC(=O)[C@]3(O)CC [IRINOTECAN]
2.34e-06 s⁻¹,2.26e-05 s⁻¹,CCc1c2c(nc3ccc(O)cc13)-c1cc3c(c(=O)n1C2)COC(=O)[C@]3(O)CC [7-ETHYL-10-HYDROXYCAMPTOTHECIN]

Structure (SMILES),k el [1],k el [2]
CCc1c2c(nc3ccc(O[C@@H]4O[C@H](C(=O)O)[C@@H](O)[C@H](O)[C@H]4O)cc13)-c1cc3c(c(=O)n1C2)COC(=O)[C@]3(O)CC,8.61e-06 s⁻¹,1.7e-05 s⁻¹
